# Experimental data published in ChEMBL document CHEMBL1145321, “Evaluation of indenoisoquinoline topoisomerase I inhibitors using a hollow fiber assay” (2006).
# Tested on: Panel NCI-60 (60 carcinoma cell lines)
# Experiment: Antiproliferative activity against human NCI60 cell line measured as mean graph midpoint
# Format: functional
row,Structure (SMILES),Activity
1,COc1cc2c3c(n(CCCN)c(=O)c2cc1OC)-c1cc2c(cc1C3=O)OCO2.Cl,0.16 µM
2,Cl.NCCCn1c2c(c3ccc([N+](=O)[O-])cc3c1=O)C(=O)c1ccccc1-2,0.146 µM
3,COc1cc2c(cc1OC)[C@H]1C(=O)c3cc4c(cc3[C@H]1N(Cc1ccccc1)C2=O)OCO4,1.18 µM
4,CC[C@]1(O)C[C@@H]2CN(CCc3c([nH]c4ccccc34)[C@@](C(=O)OC)(c3cc4c(cc3OC)N(C)[C@H]3[C@@](O)(C(=O)OC)[C@H](OC(C)=O)[C@]5(CC)C=CCN6CC[C@]43[C@@H]65)C2)C1.O=S(=O)(O)O [VINBLASTINE SULFATE],0.025 µM
5,Cl.NCCCn1c2c(c3ccccc3c1=O)C(=O)c1cc3c(cc1-2)OCO3,0.251 µM
6,COc1cc2c3c(n(CCCCO)c(=O)c2cc1OC)-c1cc2c(cc1C3=O)OCO2,3.2 µM
7,COc1cc2c3c(n(CCCNCCNCCN)c(=O)c2cc1OC)-c1cc2c(cc1C3=O)OCO2.Cl,2.4 µM
8,COc1cc2c(cc1[N+](=O)[O-])C(=O)N(CCCBr)[C@@H]1c3cc4c(cc3C(=O)[C@H]21)OCO4,0.016 µM
9,Cl.O=C1c2ccccc2-c2c1c1ccccc1c(=O)n2CCCNCCCn1ccnc1,1.01 µM
10,COc1cc2c3c(n(CCCNCCN)c(=O)c2cc1OC)-c1cc2c(cc1C3=O)OCO2.Cl.Cl,0.347 µM
11,O=C1c2ccccc2-c2c1c1ccccc1c(=O)n2CCCCCO,14.4 µM
12,[N-]=[N+]=NCCCn1c2c(c3ccc([N+](=O)[O-])cc3c1=O)C(=O)c1cc3c(cc1-2)OCO3,0.098 µM
13,COc1cc2c(cc1OC)[C@H]1C(=O)c3cc4c(cc3[C@H]1N(CCCBr)C2=O)OCO4,0.69 µM
14,CC(=O)O[C@H]1C(=O)[C@@]2(C)[C@H]([C@H](OC(=O)c3ccccc3)[C@]3(O)C[C@H](OC(=O)[C@H](O)[C@@H](NC(=O)c4ccccc4)c4ccccc4)C(C)=C1C3(C)C)[C@]1(OC(C)=O)CO[C@@H]1C[C@@H]2O [PACLITAXEL],0.0253 µM
15,Cl.NCCCCn1c2c(c3ccccc3c1=O)C(=O)c1ccccc1-2,0.156 µM
16,COc1cc2c3c(n(CCN)c(=O)c2cc1OC)-c1cc2c(cc1C3=O)OCO2.Cl,0.338 µM
17,COc1cc2c3c(n(Cc4ccccc4)c(=O)c2cc1OC)-c1cc2c(cc1C3=O)OCO2,41.6 µM
18,Cl.c1c2c(cc3c1OCO3)-c1ncc3cc4c(cc3c1C2)OCO4,0.271 µM
19,CC[C@@]1(O)C(=O)OCc2c1cc1n(c2=O)Cc2cc3ccccc3nc2-1 [CAMPTOTHECIN],0.0405 µM
20,Cn1c2c(c3ccccc3c1=O)C(=O)c1cc3c(cc1-2)OCO3,45 µM
21,CCCCn1c2c(c3cc(OC)c(OC)cc3c1=O)C(=O)c1cc3c(cc1-2)OCO3,41.6 µM
22,COc1cc2c3c(n(C)c(=O)c2cc1OC)-c1cc2c(cc1C3=O)OCO2,20 µM
23,O=C1c2cc3c(cc2-c2c1c1ccccc1c(=O)n2CCCNCCCO)OCO3,15.5 µM
24,COc1cc2c3c(n(C)c(=O)c2cc1OC)-c1cc2c(cc1/C3=C/CCCI)OCO2,8.49 µM
25,Cl.NCCCn1c2c(c3ccccc3c1=O)C(=O)c1ccccc1-2,0.315 µM
